How the values were obtained:
[1] = Qualitative assessment of reduction of methylene blue in aqueous solution (visual colour change blue to colourless); format: physicochemical; details: for Rate/extent of reduction: neutral, final pH about 6.5; for Rate of reduction: compared to neutral pH
Procedure: In aqueous solution, the oxidised form of methylene blue has a deep blue coloration, and the reduced (leuco) form is colourless and clear. Reduction of methylene blue can therefore be determined by observation of a colour change from blue to colourless. In the present experiments, the colour change was measured by eye against a white background, but instrumentation, e.g. a visible range spectrophotometer, could also be used.
Individual reducing agents or combinations of reducing agents were added to a solution of methylene blue. […] Reduction of methylene blue was assessed by visual observation of colour change. […] The pH of the final solution of methylene blue and reducing agent(s) was about pH 6.5 in each case (here referred to as “neutral”).
Individual reducing agents or combinations of reducing agents were added, in solution; to a methylene blue solution which had been made either acid or alkaline using acetic acid or sodium hydroxide, respectively. The effect of pH on reduction of methylene blue was determined. Reduction of methylene blue was assessed by visual observation of colour change. The rate of reduction (if any) was compared to the rates of reduction at neutral pH.
In the present context, “acid” refers to a pH adjusted to approximately 3.7 using acetic acid, and “alkali” refers to a pH adjusted to approximately 9.8 using sodium hydroxide. The results are as follows: […]

[2] = Qualitative assessment of reduction of thionine in aqueous solution (visual colour change blue/purple to colourless); format: physicochemical; details: thionine 50 mg/30 ml; reducing agents 250 mg/3 ml
Procedure: The following reducing agents or combinations of reducing agents (250 mg/3 ml) were added to an aqueous solution of thionine (50 mg/30 mU. Reduction of thionine was determined by visual observation of colour change from blue/purple to colourless. All experiments used 1.67 mg/mI (50 mg/30 ml) thionine solution. Ascorbic acid, L-cysteine or glutathione was used in solution at 83.3 mg/mi (250 mg/3 ml).

[3] = acid, pH approximately 3.7 (acetic acid)
[4] = alkali, pH approximately 9.8 (sodium hydroxide)

Compound | Rate/extent of reduction [1] | Rate of reduction [2] | Rate of reduction [1, 3] | Rate of reduction [1, 4]
Cl.N[C@@H](CS)C(=O)O [L-cysteine, L-cysteine hydrochloride] | no reduction |  |  | 
CC(=O)N[C@@H](CS)C(=O)O [N-acetyl-L-cysteine, N-acetyl L-cysteine] | partial reduction |  |  | 
O=C1O[C@H]([C@@H](O)CO)C(O)=C1O [ascorbic acid] | reduced slowly over 10-15 minutes | reduced in about 10-15 minutes | no change in rate compared to neutral | no change in rate compared to neutral
N[C@@H](CCC(=O)N[C@@H](CS)C(=O)NCC(=O)O)C(=O)O [glutathione] | no reduction over 15 minutes | no reduction | no observable reduction (as with neutral) | slight reduction over 10-15 minutes
CSCC[C@H](N)C(=O)O [methionine] | no reduction |  |  | 
O=S([O-])S(=O)[O-].[Na+].[Na+] [sodium hydrosulphite] | very rapid reduction | rapid reduction |  | 
O=S([O-])S(=O)(=O)[O-].[Na+].[Na+] [sodium metabisulphite] | no reduction |  |  | 

Reference: US20040033936A1, “Production, stabilisation and use of reduced forms of pharmaceutical compounds” (priority 2000, published 2004)
